# Results as given in patent US8501446B2 (Vertex Pharmaceuticals Incorporated, priority 2004, dated 2013).
# Key:
# [1] = biological target: T1, full length Aurora-A (AA 1-403) (Homo sapiens, UniProt O14965); experiment: Aurora-A inhibition assay, standard coupled enzyme system; assay type: biochemical; conditions: average Ki if more than one value determined
# T1 construct: full length Aurora-A (AA 1-403)
# T1 sequence (O14965 1-403): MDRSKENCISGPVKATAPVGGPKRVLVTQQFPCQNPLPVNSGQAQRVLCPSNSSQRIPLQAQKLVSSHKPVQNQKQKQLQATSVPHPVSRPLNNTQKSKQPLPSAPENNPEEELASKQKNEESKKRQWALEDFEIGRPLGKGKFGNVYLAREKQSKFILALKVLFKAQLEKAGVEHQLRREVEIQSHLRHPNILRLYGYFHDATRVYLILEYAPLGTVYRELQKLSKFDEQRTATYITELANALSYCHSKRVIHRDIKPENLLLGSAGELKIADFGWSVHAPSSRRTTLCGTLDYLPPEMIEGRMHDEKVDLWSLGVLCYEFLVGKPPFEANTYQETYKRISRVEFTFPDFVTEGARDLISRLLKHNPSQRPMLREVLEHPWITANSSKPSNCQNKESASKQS
# Description: Compounds were screened for their ability to inhibit full length Aurora-A (AA 1-403) activity using a standard coupled enzyme system (Fox et al., Protein Sci. 7, pp. 2249 (1998)). Reactions were carried out in a solution containing 100 mM HEPES (pH 7.5), 10 mM MgCl2, 25 mM NaCl, 300 μM NADH, 1 mM DTT and 3% DMSO. Final substrate concentrations in the assay were 200 μM ATP (Sigma Chemicals, St Louis, Mo.) and 800 μM peptide (LRRASLG, American Peptide, Sunnyvale, Calif.). Reactions were carried out at 30° C. and 35 nM Aurora-A. Final concentrations of the components of the coupled enzyme system were 2.5 mM phosphoenolpyruvate, 200 μM NADH, 60 μg/ml pyruvate kinase and 20 μg/ml lactate dehydrogenase.
# An assay stock buffer solution was prepared containing all of the reagents listed above with the exception of ATP and the test compound of interest. The assay stock buffer solution (60 μl) was incubated in a 96 well plate with 2 μl of the test compound of interest at final concentrations spanning 0.002 μM to 30 μM at 30° C. for 10 min. Typically, a 12 point titration was conducted by preparing serial dilutions (from 1 mM compound stocks) with DMSO of the test compounds in daughter plates. The reaction was initiated by the addition of 5 μl of ATP (final concentration 200 μM). Rates of reaction were obtained using a Molecular Devices Spectramax plate reader (Sunnyvale, Calif.) over 10 min at 30° C. The Ki values were determined from the rate data as a function of inhibitor concentration using computerized nonlinear regression (Prism 3.0, Graphpad Software, San Diego, Calif.). Aurora-C activity was screened in a similar manner using Aurora-C protein. Aurora-B activity was screened using a radioactive assay, such as described in Examples 1 and 2, but using Aurora-B protein.
# [2] = biological target: T2, ROCK I (AA 6-553) (Homo sapiens, UniProt Q13464); experiment: ROCK inhibition assay, standard coupled enzyme system ("Enzyme"); assay type: biochemical; conditions: enzyme-linked assay
# T2 construct: ROCK I (AA 6-553)
# Description: Compounds were screened for their ability to inhibit ROCK I (AA 6-553) activity using a standard coupled enzyme system (Fox et al. (1998) Protein Sci. 7, 2249). Reactions were carried out in a solution containing 100 mM HEPES (pH 7.5), 10 mM MgCl2, 25 mM NaCl, 2 mM DTT and 1.5% DMSO. Final substrate concentrations in the assay were 45 μM ATP (Sigma Chemicals, St Louis, Mo.) and 200 μM peptide (American Peptide, Sunnyvale, Calif.). Reactions were carried out at 30° C. and 45 nM ROCK L. Final concentrations of the components of the coupled enzyme system were 2.5 mM phosphoenolpyruvate, 350 μM NADH, 30 μg/ml pyruvate kinase and 10 μg/ml lactate dehydrogenase.
# T2 sequence (Q13464 6-553, species assumed): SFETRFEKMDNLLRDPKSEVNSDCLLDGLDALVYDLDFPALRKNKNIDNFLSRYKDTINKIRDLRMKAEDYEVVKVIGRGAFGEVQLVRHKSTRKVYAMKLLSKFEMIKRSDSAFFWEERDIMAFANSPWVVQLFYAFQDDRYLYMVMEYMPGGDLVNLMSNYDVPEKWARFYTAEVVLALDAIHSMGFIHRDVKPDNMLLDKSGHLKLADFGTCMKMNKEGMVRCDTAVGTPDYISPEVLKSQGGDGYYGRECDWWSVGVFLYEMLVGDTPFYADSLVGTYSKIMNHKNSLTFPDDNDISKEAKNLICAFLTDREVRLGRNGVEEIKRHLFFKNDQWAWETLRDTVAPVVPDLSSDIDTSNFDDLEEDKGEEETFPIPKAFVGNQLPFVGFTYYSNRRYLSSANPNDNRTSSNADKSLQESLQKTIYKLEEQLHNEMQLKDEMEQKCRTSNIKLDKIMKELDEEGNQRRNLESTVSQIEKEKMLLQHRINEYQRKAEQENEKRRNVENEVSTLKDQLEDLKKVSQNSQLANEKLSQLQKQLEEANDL
compound,measurement,setting,value
C[Si](C)(C)c1[nH]c2ncc(-c3ccccc3)cc2c1-c1ccccc1 [Compound 210],Ki,[1],500 to 5000 nM
CCCCNC(=O)c1cccc(-c2c[nH]c3ncc(-c4ccccc4)cc23)c1 [Compound 220],Ki,[1],500 to 5000 nM
same,Ki,[2],500 to 5000 nM
CS(=O)(=O)c1cccc(-c2c[nH]c3ncc(-c4ccc(F)cc4)cc23)c1 [Compound 221],Ki,[1],< 500 nM
same,Ki,[2],< 500 nM
COc1ccc(-c2c[nH]c3ncc(-c4ccc(F)cc4)cc23)cc1OC [Compound 222],Ki,[1],< 500 nM
same,Ki,[2],< 500 nM
Fc1ccc(-c2cnc3[nH]cc(-c4ccc(F)cc4)c3c2)cc1 [Compound 223],Ki,[1],500 to 5000 nM
same,Ki,[2],500 to 5000 nM
COc1ccc(-c2c[nH]c3ncc(-c4ccc(F)cc4)cc23)cc1 [Compound 224],Ki,[1],< 500 nM
same,Ki,[2],< 500 nM
O=C(c1cccc(-c2c[nH]c3ncc(-c4cc(Cl)cc(Cl)c4)cc23)c1)N1CCOCC1 [Compound 225],Ki,[1],500 to 5000 nM
same,Ki,[2],500 to 5000 nM
CCNC(=O)c1cccc(-c2c[nH]c3ncc(-c4cc(Cl)cc(Cl)c4)cc23)c1 [Compound 226],Ki,[1],500 to 5000 nM
NC(=O)c1ccc(-c2c[nH]c3ncc(-c4ccc(F)cc4)cc23)cc1 [Compound 227],Ki,[1],< 500 nM
same,Ki,[2],< 500 nM
NC(=O)c1cccc(-c2c[nH]c3ncc(-c4ccc(F)cc4)cc23)c1 [Compound 228],Ki,[1],< 500 nM
same,Ki,[2],< 500 nM
O=Cc1ccc(-c2c[nH]c3ncc(-c4ccccc4)cc23)cc1 [Compound 229],Ki,[1],< 500 nM
same,Ki,[2],500 to 5000 nM
CC(=O)NCc1ccc(-c2c[nH]c3ncc(-c4ccccc4)cc23)cc1 [Compound 230],Ki,[1],500 to 5000 nM
same,Ki,[2],500 to 5000 nM
CC(=O)c1ccc(-c2c[nH]c3ncc(-c4ccccc4)cc23)cc1 [Compound 231],Ki,[1],< 500 nM
same,Ki,[2],< 500 nM
Nc1ccc(-c2c[nH]c3ncc(-c4ccccc4)cc23)cc1 [Compound 232],Ki,[1],< 500 nM
same,Ki,[2],500 to 5000 nM
CNS(=O)(=O)c1ccc(-c2c[nH]c3ncc(-c4ccccc4)cc23)cc1 [Compound 233],Ki,[2],500 to 5000 nM
CS(=O)(=O)Nc1ccc(-c2c[nH]c3ncc(-c4ccccc4)cc23)cc1 [Compound 234],Ki,[1],< 500 nM
NC(=O)c1ccc(-c2c[nH]c3ncc(-c4ccoc4)cc23)cc1 [Compound 235],Ki,[1],< 500 nM
same,Ki,[2],< 500 nM
NC(=O)c1ccc(-c2c[nH]c3ncc(-c4ccsc4)cc23)cc1 [Compound 236],Ki,[1],< 500 nM
COc1cccc(-c2cnc3[nH]cc(-c4ccc(C(N)=O)cc4)c3c2)c1 [Compound 239],Ki,[1],< 500 nM
same,Ki,[2],< 500 nM
Clc1cnc2[nH]cc(-c3cccc(Br)n3)c2c1 [Compound 240],Ki,[1],< 500 nM
same,Ki,[2],500 to 5000 nM
Clc1cnc2[nH]cc(-c3cccc(N4CCCC4)n3)c2c1 [Compound 241],Ki,[1],500 to 5000 nM
Clc1cnc2[nH]cc(-c3cccc(Nc4ccccc4)n3)c2c1 [Compound 243],Ki,[1],< 500 nM
same,Ki,[2],500 to 5000 nM
Clc1ccc(CNc2cccc(-c3c[nH]c4ncc(Cl)cc34)n2)c(Cl)c1 [Compound 244],Ki,[1],500 to 5000 nM
same,Ki,[2],500 to 5000 nM
CC(C)(C)OC(=O)N(Cc1ccc(S(C)(=O)=O)cc1)c1cccc(-c2c[nH]c3ncc(Cl)cc23)n1 [Compound 245],Ki,[1],< 500 nM
Nc1cccc(-c2c[nH]c3ncc(Cl)cc23)n1 [Compound 246],Ki,[1],500 to 5000 nM
same,Ki,[2],500 to 5000 nM
CS(=O)(=O)c1ccc(CNc2cccc(-c3c[nH]c4ncc(Cl)cc34)n2)cc1 [Compound 247],Ki,[1],< 500 nM
same,Ki,[2],500 to 5000 nM
Clc1cnc2[nH]cc(-c3cccc(Sc4ccccc4Cl)n3)c2c1 [Compound 248],Ki,[1],< 500 nM
same,Ki,[2],500 to 5000 nM
O=C(Nc1cccc(-c2c[nH]c3ncc(Cl)cc23)n1)c1ccccc1 [Compound 249],Ki,[1],< 500 nM
same,Ki,[2],500 to 5000 nM
CC(C)(C)OC(=O)Nc1cccc(-c2c[nH]c3ncc(Cl)cc23)n1 [Compound 250],Ki,[1],< 500 nM
same,Ki,[2],500 to 5000 nM
Nc1cccc(-c2c[nH]c3ncc(-c4ccccc4)cc23)n1 [Compound 268],Ki,[1],500 to 5000 nM
c1ccc(CNc2cccc(-c3c[nH]c4ncc(-c5ccccc5)cc34)n2)cc1 [Compound 269],Ki,[1],< 500 nM
CNc1cccc(-c2c[nH]c3ncccc23)n1 [Compound 272],Ki,[1],500 to 5000 nM
CC(C)C(=O)Nc1cccc(-c2c[nH]c3ncc(Cl)cc23)n1 [Compound 279],Ki,[1],500 to 5000 nM
O=C(Cc1ccccc1)Nc1cccc(-c2c[nH]c3ncc(Cl)cc23)n1 [Compound 280],Ki,[1],< 500 nM
O=C(Nc1cccc(-c2c[nH]c3ncc(Cl)cc23)n1)c1ccccc1Cl [Compound 281],Ki,[1],< 500 nM
O=C(Nc1cccc(-c2c[nH]c3ncc(Cl)cc23)n1)c1cccc(Cl)c1 [Compound 282],Ki,[1],< 500 nM
CC(=O)Nc1cccc(-c2c[nH]c3ncc(Cl)cc23)n1 [Compound 283],Ki,[1],500 to 5000 nM
c1ccc(-c2cnc3[nH]cc(-c4cccc(NC5CCCCC5)n4)c3c2)cc1 [Compound 287],Ki,[1],< 500 nM
O=C(Nc1cccc(-c2c[nH]c3ncc(Cl)cc23)n1)C1CCCCC1 [Compound 288],Ki,[1],< 500 nM
NC(=O)c1ccc(-c2c[nH]c3ncc(CCc4ccccc4)cc23)cc1 [Compound 303],Ki,[2],< 500 nM
NC(=O)c1ccc(-c2c[nH]c3ncc(Sc4ccccc4)cc23)cc1 [Compound 304],Ki,[2],500 to 5000 nM
Fc1cnc(-c2c[nH]c3ncc(Cl)cc23)nc1OCc1ccc(Cl)cc1 [Compound 314],Ki,[1],500 to 5000 nM
Clc1cnc2[nH]cc(-c3ncccn3)c2c1 [Compound 319],Ki,[1],500 to 5000 nM
C[C@H](Nc1nc(-c2c[nH]c3ncc(Cl)cc23)ncc1F)c1cccc(OCCN(C)C)c1 [Compound 320],Ki,[1],< 500 nM
Nc1nc(-c2c[nH]c3ncc(Cl)cc23)ncc1F [Compound 332],Ki,[1],< 500 nM
C[C@H](Nc1nc(-c2c[nH]c3ncc(CO)cc23)ncc1F)c1ccc(F)cc1 [Compound 334],Ki,[1],< 500 nM
C[C@H](Nc1nc(-c2c[nH]c3ncc(N)cc23)ncc1F)c1ccc(F)cc1 [Compound 343],Ki,[1],500 to 5000 nM
C[C@H](Nc1nc(-c2c[nH]c3ncc(C(=O)N(C)C)cc23)ncc1F)c1ccc(F)cc1 [Compound 346],Ki,[1],500 to 5000 nM
C[C@H](Nc1nc(-c2c[nH]c3ncc(C(=O)O)cc23)ncc1F)c1ccc(F)cc1 [Compound 350],Ki,[1],500 to 5000 nM
CN1CCC(Nc2nc(-c3c[nH]c4ncc(Cl)cc34)ncc2F)C1 (centres unmarked) [Compound 352],Ki,[1],< 500 nM
N#Cc1ccnc(-c2c[nH]c3ncc(Cl)cc23)c1 [Compound 353],Ki,[2],500 to 5000 nM
CCOC(=O)Nc1cnc2[nH]cc(-c3ncc(F)c(N[C@@H](C)c4ccc(F)cc4)n3)c2c1 [Compound 358],Ki,[1],500 to 5000 nM
NCCC[C@H](Nc1nc(-c2c[nH]c3ncc(Cl)cc23)ncc1F)C(=O)O [Compound 403],Ki,[1],500 to 5000 nM
OCc1cc(-c2c[nH]c3ncc(Cl)cc23)nc(N2CCNCC2)c1 [Compound 405],Ki,[1],< 500 nM
C#Cc1cc(-c2c[nH]c3ncc(Cl)cc23)nc(N2CCNCC2)c1 [Compound 412],Ki,[1],< 500 nM
CC(C)CCNC(=O)[C@H](C)Nc1nc(-c2c[nH]c3ncc(Cl)cc23)ncc1F [Compound 464],Ki,[1],500 to 5000 nM
CC[C@H](C)NC(=O)[C@H](C)Nc1nc(-c2c[nH]c3ncc(Cl)cc23)ncc1F [Compound 465],Ki,[1],< 500 nM
C[C@H](Nc1nc(-c2c[nH]c3ncc(Cl)cc23)ncc1F)C(=O)NCCC(=O)O [Compound 466],Ki,[1],500 to 5000 nM
CNC(=O)CCNC(=O)[C@H](C)Nc1nc(-c2c[nH]c3ncc(Cl)cc23)ncc1F [Compound 467],Ki,[1],< 500 nM
CC(C)NC(=O)CCNC(=O)[C@H](C)Nc1nc(-c2c[nH]c3ncc(Cl)cc23)ncc1F [Compound 468],Ki,[1],< 500 nM
CC(C)NS(=O)(=O)CCNC(=O)[C@H](C)Nc1nc(-c2c[nH]c3ncc(Cl)cc23)ncc1F [Compound 469],Ki,[1],< 500 nM
